Where two headings read alike, the source gives them in different places.
How the values were obtained:
[1] = system: Human Acute T Lymphoblastic Leukemia Cells (Molt-4); assay: Inhibition of Molt-4 cell proliferation (CellTiter luminescent viability); assay type: cell-based; conditions: Homo sapiens; for inhibition at 0.01 µM: read-out: Inhibition Rate at 10 nM (%); for inhibition at 0.5 µM: read-out: Inhibition Rate at 500 nM (%)
Procedure: (§1) The tumor cells used herein were cultured in a cell culture medium listed in table 3 at 37 °C in an incubator with 5% CO2. Prior to experimentation, all cell lines used were correctly identified by STR profiling, and tested negative for mycoplasma contamination using a mycoplasma detection kit through routine screenings.
(§2) The IC50 values of the compounds of the present disclosure (including the compounds in Table 1, Table 2, and Examples 1-468) were determined using the CellTiter-Meiluncell Luminescent Cell Viability Assay Kit from Dalian Meilun Biotech Co., Ltd. The detailed procedure is as follows: Tumor cells were seeded in 96-well cell culture plates at the densities specified in Table 4. On the following day, the test compounds of the present disclosure were subjected to serial dilution. The dilution can be performed according to one of the following two methods: • (1) The first dilution method: The test compounds of the present disclosure (including the compounds in Table 1, Table 2, and Examples 1-468) were subjected to 5-fold serial dilutions starting from a highest concentration of 2000 μM, resulting in a total of 9 concentrations from high to low (2000, 400, 80, 16, 3.2, 0.64, 0.128, 0.0256, 0.00512 μM). Subsequently, 0.5 μL of the test compound dilution was transferred into the 96-well plate containing the cells, with each well containing 100 μL of cell culture medium. […] Into the 96-well plate, the diluted test compounds and corresponding detection reagents were added, resulting in final test compound concentrations of 500 nM and 10 nM, respectively. The experimental procedure is described below using the diluted 2 μM test compound as an example.
(§3) 0.5 μL of the aforementioned diluted compound of the present disclosure (including the compounds in Table 1, Table 2, and Examples 1-468) was added to the seeded cells in 100 μL of medium, yielding a final test compound concentration of 10 nM. After the cells were treated with the compounds of the present disclosure for a specified period, the cell viability assay reagent was added to the culture medium according to the kit's instructions to determine cell viability. […] All controls were treated using the same procedure as the compounds of the present disclosure. The growth inhibition curves for the compounds of the present disclosure were plotted using Prism GraphPad software, and the IC50 values were calculated therefrom.

[2] = system: Human Multiple myeloma cell line (MM.1S); assay: Inhibition of MM.1S cell proliferation (CellTiter luminescent viability); assay type: cell-based; conditions: Homo sapiens, MM1.S, Table IA5, IRAK4 inhibitor-based, 96 hours
Procedure: as §1, §2, §3

[3] = MOLT-4, 96 h, Table IA2, IRAK4 inhibitor-based, Molt-4, 10 nM, 96 hours
[4] = MOLT-4, 96 h, Table IA2, IRAK4 inhibitor-based, Molt-4, 500 nM, 96 hours
[5] = MOLT-4, Molt-4, 10 nM, Table IN3
[6] = MOLT-4, Molt-4, 500 nM, Table IN3

COc1cc2nn([C@H]3CC[C@H](CN4C[C@H]5C[C@@H]4CN5c4ccc5c(c4)C(=O)N(N4CCC(=O)NC4=O)C5=O)CC3)cc2cc1NC(=O)c1cccc(C(F)(F)F)c1 [GT-08663, N-(2-((1R,4r)-4-(((1R,4R)-5-(2-(2,4-dioxotetrahydropyrimidin-1(2H)-yl)-1,3-dioxoisoindolin-5-yl)-2,5-diazabicyclo[2.2.1]heptan-2-yl)methyl)cyclohexyl)-6-methoxy-2H-indazol-5-yl)-3-(trifluoromethyl)benzamide]
inhibition at 0.01 µM [1, 3]: 10 to 15%
inhibition at 0.5 µM [1, 4]: 15 to 20%

Cc1cc(-c2nc(C(=O)Nc3cc4oc(N5CCOCC5)nc4nc3N3CC[C@@H](O)C3)co2)ccn1 [emavusertib, Emavusertib, reference compound]
inhibition at 0.01 µM [1, 3]: 3 to 7%
inhibition at 0.5 µM [1, 4]: 0 to 3%

COc1cc2nn([C@H]3CC[C@H](CN4CC5CCC(C4)N5c4ccc5c(c4)C(=O)N(N4CCC(=O)NC4=O)C5=O)CC3)cc2cc1NC(=O)c1cccc(C(F)(F)F)c1 [GT-08665, N-(2-((1r,4r)-4-((8-(2-(2,4-dioxotetrahydropyrimidin-1(2H)-yl)-1,3-dioxoisoindolin-5-yl)-3,8-diazabicyclo[3.2.1]octan-3-yl)methyl)cyclohexyl)-6-methoxy-2H-indazol-5-yl)-3-(trifluoromethyl)benzamide]
inhibition at 0.01 µM [1, 3]: 15 to 20%
inhibition at 0.5 µM [1, 4]: 15 to 20%

C[C@@H]1CNC(=O)c2cc3ccc(C(=O)Nc4cnn(Cc5ccc(N6CCC(N7CCN(CC8CCN(c9ccc%10c(c9)C(=O)N(N9CCC(=O)NC9=O)C%10=O)CC8)CC7)CC6)cc5)c4)nc3n21 [GT-08343, (R)—N-(1-(4-(4-(4-((1-(2-(2,4-dioxotetrahydropyrimidin-1(2H)-yl)-1,3-dioxoisoindolin-5-yl)piperidin-4-yl)methyl)piperazin-1-yl)piperidin-1-yl)benzyl)-1H-pyrazol-4-yl)-9-methyl-6-oxo-6,7,8,9-tetrahydropyrido[3′,2′: 4,5]pyrrolo[1,2-a]pyrazine-2-carboxamide]
inhibition at 0.01 µM ([1]; MOLT-4, Molt-4, 10 nM, Table IN2): 20 to 30%
inhibition at 0.01 µM [1, 5]: 30 to 40%
inhibition at 0.5 µM ([1]; MOLT-4, Molt-4, 500 nM, Table IN2): 30 to 50%
inhibition at 0.5 µM [1, 6]: 60 to 70%

Cn1c(=O)n(C2CCC(=O)NC2=O)c2cccc(C#CCOC3CCN(C[C@H]4CC[C@H](n5cc(NC(=O)c6cnn7ccc(N8C[C@H]9C[C@@H]8CO9)nc67)c(C(F)F)n5)CC4)CC3)c21 (stereo partly shown) [KT-474, reference compound]
inhibition at 0.01 µM [1, 3]: 7 to 10%
inhibition at 0.5 µM [1, 4]: 7 to 10%
inhibition at 0.01 µM ([2]; 10 nM, read-out: Inhibition Rate at 10 nM (%)): 5 to 10%
inhibition at 0.5 µM ([2]; 500 nM, read-out: Inhibition Rate at 500 nM (%)): 15 to 20%

C[C@@H]1CNC(=O)c2cc3ccc(C(=O)Nc4cnn(Cc5ccc(N6CCC(N7CCN(CC8CCN(c9cccc%10c9C(=O)N(N9CCC(=O)NC9=O)C%10=O)CC8)CC7)CC6)cc5)c4)nc3n21 [GT-08344, (R)—N-(1-(4-(4-(4-((1-(2-(2,4-dioxotetrahydropyrimidin-1(2H)-yl)-1,3-dioxoisoindolin-4-yl)piperidin-4-yl)methyl)piperazin-1-yl)piperidin-1-yl)benzyl)-1H-pyrazol-4-yl)-9-methyl-6-oxo-6,7,8,9-tetrahydropyrido[3′,2′: 4,5]pyrrolo[1,2-a]pyrazine-2-carboxamide]
inhibition at 0.01 µM [1, 5]: 5 to 10%
inhibition at 0.5 µM [1, 6]: 80 to 100%
